Assay [1] has as its target T1, human recombinant P2X7 receptors (Homo sapiens, UniProt Q99572).
T1 construct: expressed in transfected cells
T1 sequence (Q99572 1-595): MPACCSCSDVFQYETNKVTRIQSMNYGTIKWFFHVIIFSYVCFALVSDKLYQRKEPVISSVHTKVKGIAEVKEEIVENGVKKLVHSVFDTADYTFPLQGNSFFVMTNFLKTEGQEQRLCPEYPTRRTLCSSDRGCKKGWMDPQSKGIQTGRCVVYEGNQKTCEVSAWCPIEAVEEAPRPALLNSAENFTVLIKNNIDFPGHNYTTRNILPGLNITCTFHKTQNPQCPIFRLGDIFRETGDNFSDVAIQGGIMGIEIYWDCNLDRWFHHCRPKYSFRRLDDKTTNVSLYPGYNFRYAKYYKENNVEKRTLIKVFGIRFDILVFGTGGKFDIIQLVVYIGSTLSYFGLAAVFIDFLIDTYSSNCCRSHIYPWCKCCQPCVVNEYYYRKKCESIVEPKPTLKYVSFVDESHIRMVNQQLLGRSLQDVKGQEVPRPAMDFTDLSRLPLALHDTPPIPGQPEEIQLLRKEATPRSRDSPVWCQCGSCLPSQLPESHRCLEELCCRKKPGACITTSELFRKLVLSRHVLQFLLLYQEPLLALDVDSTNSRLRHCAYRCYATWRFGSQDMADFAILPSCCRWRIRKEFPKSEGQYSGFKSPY
The assay can be described thus: Ethidium Accumulation Assay. Type of assay: cell-based. The conditions noted are these: blocking ATP (1 mM) responses; HEK293 cells expressing human P2X7; read-out: pIC50 in the Ethidium Accumulation Assay (or a slightly modified version thereof), human P2X7 receptor antagonist activity (converted). On the procedure: Studies were performed using NaCl assay buffer of the following composition: 140 mM NaCl, 10 mM HEPES [4-(2-hydroxyethyl)-1-piperazine-1-ethanesulfonic acid], 5 mM N-methyl-D-glucamine, 5.6 mM KCl, 10 mM D-glucose, 0.5 mM CaCl2 (pH 7.4).
Human Embryonic Kidney (HEK) 293 cells, stably expressing human recombinant P2X7 receptors, were grown in poly-D-lysine pretreated 96 well plates for 18-24 hours. (The cloning of the human P2X7 receptor is described in U.S. Pat. No. 6,133,434, e.g. see Example 3 therein). The cells were washed twice with 350 μl of the assay buffer, before addition of 50 μl of the assay buffer containing the putative P2X7 receptor antagonist compound. (A small amount of dimethyl sulfoxide, for initially dissolving the compound, is optionally used and present in this 50 μl test compound sample.) The cells were then incubated at room temperature (19-21° C.) for 30 min before addition of ATP and ethidium (100 μM final assay concentration). The ATP concentration was chosen to be close to the EC80 for the receptor type and was 1 mM for studies on the human P2X7 receptor. Incubations were continued for 8 or 16 min and were terminated by addition of 25 μl of 1.3M sucrose containing 4 mM of the P2X7 receptor antagonist Reactive Black 5 (Aldrich). Cellular accumulation of ethidium was determined by measuring fluorescence (excitation wavelength of 530 nm and emission wavelength of 620 nm) from below the plate with a Canberra Packard Fluorocount (14 Station Road, Pangbourne, Reading, Berkshire RG8 7AN, United Kingdom) or a FlexStation II 384 from Molecular Molecular Devices (660-665 Eskdale Road, Wokingham, Berkshire RG41 5TS, United Kingdom). Antagonist pIC50 values for blocking ATP responses were determined using iterative curve fitting techniques.

Assay [2] deals with T1, human recombinant P2X7 receptors. The assay can be described thus: Fluorescent Imaging Plate Reader (FLIPR) Ca Assay. The conditions noted are these: blocking BzATP (60 μM) responses; HEK293 or U-2OS cells expressing human P2X7; read-out: pIC50 in the FLIPR Ca Assay (or a slightly modified version thereof), human P2X7 receptor antagonist activity (converted). Type of assay: cell-based. On the procedure: Studies were performed using NaCl assay buffer of the following composition for human P2X7: 137 mM NaCl; 20 mM HEPES [4-(2-hydroxyethyl)-1-piperazine-1-ethanesulfonic acid]; 5.37 mM KCl; 4.17 mM NaHCO3; 1 mM CaCl2; 0.5 mM MgSO4; and 1 g/L of D-glucose (pH 7.4).
Human Embryonic Kidney (HEK) 293 cells, stably expressing human recombinant P2X7 receptors, were grown in poly-D-lysine pretreated 384 well plates for 24 hours at […] (for a time sufficient for growth of a homogeneous layer of cells at the bottom of the wells). Alternatively, human osteosarcoma (U-20S) cells (commercially available), transduced with modified Baculovirus (BacMam) vector to deliver the gene coding for human P2X7 receptor (i.e. transiently expressing human recombinant P2X7 receptors), were grown in substantially the same conditions as for the HEK293 cells except that the well plates were not pre-treated with poly-D-lysine. (The cloning of the human P2X7 receptor is described in U.S. Pat. No. 6,133,434, e.g. see Example 3 therein). The cells were washed three times with 80 μl of assay buffer, loaded for 1 h at 37° C. with 2 μM Fluo-4-AM [4-(6-acetoxymethoxy-2,7-difluoro-3-oxo-9-xanthenyl)-4′-methyl-2,2′-(ethylenedioxy)dianiline-N,N,N′,N′-tetraacetic acid tetrakis(acetoxymethyl) ester], a Ca^2+-sensitive, cell-permeable, fluorescent dye (Tef Labs. Inc., 9415 Capitol View Drive, Austin, Tex. 78747, USA), washed three times again (3×80 μl), and left with 30 μl buffer before the addition of 10 μl of the assay buffer containing the putative P2X7 receptor antagonist compound, the compound being added at 4× the final assay concentration chosen. The solution of the putative P2X7 receptor antagonist compound was created by (i) dissolving the compound in dimethyl sulfoxide (DMSO) to create a stock solution in DMSO at 200× the final assay concentration, and (ii) mixing 1 μl of the stock solution of the compound in DMSO with 50 μl of the assay buffer to create a solution at about 4× the final assay concentration. The cells were then incubated at room temperature for 30 mins before addition (online, by FLIPR384 or FLIPR3 instrument (Molecular Devices, 1311 Orleans Drive, Sunnyvale, Calif. 94089-1136, USA)) of benzoylbenzoyl-ATP (BzATP) such as to create a 60 μM final assay concentration of BzATP (BzATP was added at 5× this final concentration). The BzATP concentration was chosen to be close to the EC80 for the receptor type. Incubations and reading were continued for 90 sec, and intracellular calcium increase was determined by measuring fluorescence (excitation wavelength of 488 nm and emission wavelength of 516 nm) from below the plate, with FLIPR charged-coupled device (CCD) camera. Antagonist pIC50 values for blocking BzATP responses were determined using iterative curve fitting techniques.

Several values for one entry are separate records, joined by “and”; a condition that tells them apart may be missing. Equal values may be shown once. Bounds are passed on as bounds.

With `CN1CC(C(=O)NCc2cccc(C(F)(F)F)c2Cl)CC1=O` (single isomer, unassigned) [5A stereoisomer 1], the IC50 in assay [1] was 158 to 200 nM.

Regarding `CN1CC(C(=O)NCc2cccc(C(F)(F)F)c2Cl)CC1=O` (single isomer, unassigned) [5A stereoisomer 2], in assay [1], the IC50 was 39.8 to 50.1 nM.

In the case of `C[C@H](c1ccccc1)N1CC(C(=O)NCc2ccc(F)cc2Cl)CC1=O` (stereo partly drawn) [Example 1, N-[(2-chloro-4-fluorophenyl)methyl]-5-oxo-1-[(1R)-1-phenylethyl]-3-pyrrolidinecarboxamide], the IC50 in assay [1] is less than 3160 nM; in assay [2] it was no more than 20000 nM.

Turning to `O=C(NCc1ccc(F)cc1Cl)C1CC(=O)N(C2CC2)C1` (centres unmarked) [Example 2, N-[(2-Chloro-4-fluorophenyl)methyl]-1-cyclopropyl-5-oxo-3-pyrrolidinecarboxamide], the values for the IC50 in assay [1] and in assay [2] were less than 3160 nM and no more than 20000 nM, respectively.

With `O=C(NCc1ccc(Cl)cc1Cl)C1CC(=O)N(C2CC2)C1` (centres unmarked) [Example 3, 1-Cyclopropyl-N-[(2,4-dichlorophenyl)methyl]-5-oxo-3-pyrrolidinecarboxamide], the IC50 in assay [1] is < 3160 nM and 31.6 to 316 nM; in assay [2], no more than 20000 nM.

For `O=C(NCc1cccc(C(F)(F)F)c1Cl)C1CC(=O)N(C2CC2)C1` (centres unmarked) [Example 4, N-{[2-chloro-3-(trifluoromethyl)phenyl]methyl}-1-cyclopropyl-5-oxo-3-pyrrolidinecarboxamide], the IC50 is < 3160 nM and 31.6 to 316 nM in assay [1]; no more than 20000 nM in assay [2].

With `CN1CC(C(=O)NCc2cccc(C(F)(F)F)c2Cl)CC1=O` (centres unmarked) [Example 5, N-{[2-chloro-3-(trifluoromethyl)phenyl]methyl}-1-methyl-5-oxo-3-pyrrolidinecarboxamide], the IC50 in assay [1] was < 3160 nM and 31.6 to 316 nM and 50.1 to 63.1 nM; in assay [2], no more than 20000 nM.

For the compound `CN1CC(C(=O)NCc2ccc(Cl)cc2Cl)CC1=O` (centres unmarked) [Example 6, N-[(2,4-dichlorophenyl)methyl]-1-methyl-5-oxo-3-pyrrolidinecarboxamide], the IC50 in assay [1] was < 3160 nM and 31.6 to 316 nM; in assay [2] it was no more than 20000 nM.

Take `CCN1CC(C(=O)NCc2ccc(Cl)cc2Cl)CC1=O` (centres unmarked) [Example 7, N-[(2,4-dichlorophenyl)methyl]-1-ethyl-5-oxo-3-pyrrolidinecarboxamide]: the IC50 was < 3160 nM and 31.6 to 316 nM in assay [1]; no more than 20000 nM in assay [2].

On to `CCN1CC(C(=O)NCc2cccc(C(F)(F)F)c2Cl)CC1=O` (centres unmarked) [Example 8, N-{[2-chloro-3-(trifluoromethyl)phenyl]methyl}-1-ethyl-5-oxo-3-pyrrolidinecarboxamide], for which the IC50 in assay [1] is < 3160 nM and 31.6 to 316 nM; in assay [2], no more than 20000 nM.

On to `CC(C)CN1CC(C(=O)NCc2cccc(C(F)(F)F)c2Cl)CC1=O` (centres unmarked) [Example 9, N-{[2-chloro-3-(trifluoromethyl)phenyl]methyl}-1-(2-methylpropyl)-5-oxo-3-pyrrolidinecarboxamide], for which the IC50 is < 3160 nM and 31.6 to 316 nM in assay [1]; no more than 20000 nM in assay [2].

For `CC(C)CN1CC(C(=O)NCc2ccc(Cl)cc2Cl)CC1=O` (centres unmarked) [Example 10, N-[(2,4-dichlorophenyl)methyl]-1-(2-methylpropyl)-5-oxo-3-pyrrolidinecarboxamide], the IC50 is < 3160 nM and 31.6 to 316 nM in assay [1]; no more than 20000 nM in assay [2].

As to `O=C(NCc1cccc(C(F)(F)F)c1Cl)C1CC(=O)N(Cc2ccccc2)C1` (centres unmarked) [Example 11, N-{[2-chloro-3-(trifluoromethyl)phenyl]methyl}-5-oxo-1-(phenylmethyl)-3-pyrrolidinecarboxamide], the IC50 is < 3160 nM and 31.6 to 316 nM in assay [1]; no more than 20000 nM in assay [2].

`O=C(NCc1ccc(Cl)cc1Cl)C1CC(=O)N(Cc2ccccc2)C1` (centres unmarked) [Example 12, N-[(2,4-dichlorophenyl)methyl]-5-oxo-1-(phenylmethyl)-3-pyrrolidinecarboxamide]: the IC50 in assay [1] was < 3160 nM and 31.6 to 316 nM; in assay [2] it was no more than 20000 nM.

The values are drawn from patent US20100292295A1, “5-OXO-3-PYRROLIDINECARBOXAMIDE DERIVATIVES AS P2X7 MODULATORS” (GLAXO GROUP LIMITED, priority 2007, published 2010).
